In US11021486B2, “Coumarin-like cyclic compound as MEK inhibitor and use thereof” (CSTONE PHARMACEUTICALS, priority 2017, dated 2021):
Read-outs that look alike come from different tables or passages of the source.

What was measured:
activated MEK1 = target: T1, activated MEK1 (Homo sapiens, UniProt Q02750); assay: MEK Lance Ultra experiment; format: biochemical; settings: 0.07 nM activated MEK1, 2 nM non-activated ERK, 50 μM ATP; read-out: MEK potency IC50
T1 construct: purchased Millipore 14-429
Method: Biological Test Method 1: MEK Lance Ultra Experiment Compounds were serially diluted three-fold to 10 concentrations, two duplicates were set. Final test concentrations of the compounds ranged from 10 μM to 0.51 nM. 0.07 nM activated MEK1 (Millipore #14-429) and 2 nM non-activated ERK (Millipore #14-515) were mixed with the compounds or DMSO, the mixture was incubated at 23° C. for 30 minutes. Then 50 nM ULight labeled MBP (PerkinElmer #TRF0109-M) and 50 μM ATP (Invitrogen #PV3227) were added to initiate the reaction, and the mixture was incubated at 23° C. for 90 minutes. After the reaction was stopped by adding EDTA at a final concentration of 15 mM, 2 nM Eu-labeled anti-phosphorylated antibody (PerkinElmer #TRF0201-M) was added and incubated for 1 hour. The fluorescence signal data (excitation band: 320 nm; emission band: 665 nM/615 nM) was determined by an Envision microplate reader (PerkinElmer). XLfit5 software was used for data analysis and mapping.

HT29 cells = assay: Cell viability experiment (Cell Titer-Glo), HT29; format: cell-based, human
Method: (§1) Biological Test Method 2: Cell Viability Experiment
(§2) HT29 and A375 cells were plated in a 96-well cell culture plate at a density of 40,000 cells/well and 20,000 cells/well respectively, and the cells were cultured overnight. The compounds were serially diluted in a gradient of 1:3, the dilutions were added to the cell culture medium, and incubated with the cells in a 37° C. incubator for 3 days. The 96-well cell culture plate was taken from the incubator and equilibrated at room temperature for 30 minutes, then Cell Titer-Glo reagent (Promega Cat #G7573) was added at a ratio of 1:2, and the mixture was mixed thoroughly on a shaker for 2 minutes to promote cell lysis. The cell culture plate was incubated at room temperature for 10 minutes and then read on an Envision microplate reader (PerkinElmer). XLfit5 software was used for data analysis and mapping.

A375 cells = assay: Cell viability experiment (Cell Titer-Glo), A375; format: cell-based
Method: as §1, §2

[1] = Homo sapiens, HT-29, 72 h, HT29 cells, 3 days incubation, read-out: HT29 IC50
[2] = Homo sapiens, A-375, 72 h, A375 cells, 3 days incubation, read-out: A375 IC50

T1 sequence (Q02750 whole entry): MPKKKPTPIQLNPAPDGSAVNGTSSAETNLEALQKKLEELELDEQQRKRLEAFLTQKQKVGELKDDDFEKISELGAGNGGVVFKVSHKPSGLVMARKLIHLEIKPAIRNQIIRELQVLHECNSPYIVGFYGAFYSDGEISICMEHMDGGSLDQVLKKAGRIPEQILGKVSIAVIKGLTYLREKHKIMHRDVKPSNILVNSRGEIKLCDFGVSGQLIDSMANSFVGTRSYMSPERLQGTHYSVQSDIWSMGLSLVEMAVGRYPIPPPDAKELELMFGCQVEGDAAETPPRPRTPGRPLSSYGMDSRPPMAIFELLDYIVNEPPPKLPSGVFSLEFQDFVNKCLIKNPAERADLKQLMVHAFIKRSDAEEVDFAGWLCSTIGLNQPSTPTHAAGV

| SMILES | IC50 (activated MEK1) [nM] | IC50 (HT29 cells; [1]) [nM] | IC50 (A375 cells; [2]) [nM] | IC50 (HT29 cells; HT29 cells, 3 days incubation, read-out: HT29 IC50) [nM] | IC50 (A375 cells; A375 cells, 3 days incubation, read-out: A375 IC50) [nM] | IC50 (HT29 cells; Homo sapiens, HT-29, 72 h, read-out: HT29 IC50, HT29 cells, 3 days incubation) [nM] | IC50 (A375 cells; Homo sapiens, A-375, 72 h, read-out: A375 IC50, A375 cells, 3 days incubation) [nM] |
| --- | --- | --- | --- | --- | --- | --- | --- |
| CC(=O)Nc1cccc(-c2c(C)n(C3CC3)c(=O)c3c(Nc4ccc(I)cc4F)c(C)c(=O)oc23)n1 [WX039] | 52 | 4.27 | 1.61 |  |  |  |  |
| COC(=O)Nc1cccc(-c2c(C)n(C3CC3)c(=O)c3c(Nc4ccc(I)cc4F)c(C)c(=O)oc23)c1 [WX094] | 45.2 | 18.9 | 5.47 |  |  |  |  |
| Cc1c(Nc2ccc(I)cc2F)c2c(=O)n(C3CC3)c(C)c(-c3cccc(N[S+]([O-])C(C)(C)C)c3)c2oc1=O (stereo not drawn) [WX091] | 128 | 35.6 | 10.1 |  |  |  |  |
| Cc1c(Nc2ccc(I)cc2F)c2c(=O)n(C3CC3)c(C)c(-c3ccnc(N)c3)c2oc1=O [WX079] | 35.3 | 5.52 | 3.23 |  |  |  |  |
| COCCn1c(C)c(-c2cccc(NC(C)=O)c2)c2oc(=O)c(C)c(Nc3ccc(I)cc3F)c2c1=O [WX061] | 57.5 | 446 | 442 |  |  |  |  |
| Cc1c(Nc2ccc(I)cc2F)c2c(=O)n(C3CC3)c(C)c(-c3cccc(CN(C)C)c3)c2oc1=O [WX098] | 28.5 | 90.3 | 11.9 |  |  |  |  |
| Cc1[nH]c(=O)c2c(Nc3ccc(I)cc3F)c(C)c(=O)oc2c1-c1cccc(NS(C)(=O)=O)c1C (single isomer, unassigned) [WX119] | 18.2 |  |  | 19.3 | 5.85 |  |  |
| CC(=O)Nc1cncc(-c2c(C)n(C3CC3)c(=O)c3c(Nc4ccc(I)cc4F)c(C)c(=O)oc23)n1 [WX115] | 40.3 | 15.7 | 5.09 |  |  |  |  |
| COCCNc1cccc(-c2c(C)n(C3CC3)c(=O)c3c(Nc4ccc(I)cc4F)c(C)c(=O)oc23)c1 [WX087] | 152 | 23.7 | 9.42 |  |  |  |  |
| Cc1c(Nc2ccc(I)cc2F)c2c(=O)n(C3CC3)c(C)c(-c3cccc(C[S+](C)[O-])c3)c2oc1=O (single isomer, unassigned) [WX083] | 146 | 10.5 | 8.62 |  |  |  |  |
| Cc1c(Nc2ccc(I)cc2F)c2c(=O)n(C3CC3)c(C)c(-c3cccc(C[S+](C)[O-])c3)c2oc1=O (stereo not drawn) [WX068] | 35 | 9.77 | 3.66 |  |  |  |  |
| Cc1c(Nc2ccc(I)cc2F)c2c(=O)n(C3CC3)c(C)c(-c3cccc(NCCO)c3)c2oc1=O [WX093] | 110 | 23.4 | 8.8 |  |  |  |  |
| Cc1c(Nc2ccc(I)cc2F)c2c(=O)n(C3CC3)c(C)c(-c3cccc(NC(=O)NC(C)(C)C)c3)c2oc1=O [WX104] | 119 | 28.1 | 10.4 |  |  |  |  |
| Cc1c(Nc2ccc(I)cc2F)c2c(=O)n(C3CC3)c(C)c(-c3cccc(NC(N)=O)c3)c2oc1=O [WX103] | 48.9 | 20.3 | 6.58 |  |  |  |  |
| CNCCn1c(C)c(-c2cccc(NC(C)=O)c2)c2oc(=O)c(C)c(Nc3ccc(I)cc3F)c2c1=O [WX054] | 81.5 | 334 | 484 |  |  |  |  |
| Cc1c(Nc2ccc(I)cc2F)c2c(=O)n(CC(O)CO)c(C)cc2oc1=O (stereo not drawn) [WX053] | 92.8 | 9.19 | 3.27 |  |  |  |  |
| CC(=O)Nc1cccc(-c2c(C)n(C)c(=O)c3c(Nc4ccc(I)cc4F)c(C)c(=O)oc23)c1 [WX040] | 581 | 64.1 | 69.7 |  |  |  |  |
| CNC(=O)Nc1cccc(-c2c(C)n(C3CC3)c(=O)c3c(Nc4ccc(I)cc4F)c(C)c(=O)oc23)c1 [WX099] | 49.1 | 12.4 | 4.72 |  |  |  |  |
| Cc1c(Nc2ccc(I)cc2F)c2c(=O)n(C3CC3)c(C)cc2oc1=O [WX035] | 111 | 98.8 | 32.9 |  |  |  |  |
| Cc1c(Nc2ccc(I)cc2F)c2c(=O)n(C3CC3)c(C)c(-c3cccc(CS(=O)(=O)CCO)c3)c2oc1=O [WX100] | 114 | 6.84 | 2.11 |  |  |  |  |
| Cc1c(CS(=O)(=O)C2CC2)cccc1-c1c(C)n(C2CC2)c(=O)c2c(Nc3ccc(I)cc3F)c(C)c(=O)oc12 [WX108] | 29.6 |  |  |  |  | 13.1 | 2.3 |
| Cc1c(CS(C)(=O)=O)cccc1-c1c(C)n(C)c(=O)c2c(Nc3ccc(I)cc3F)c(C)c(=O)oc12 [WX109] | 119 | 90.7 | 29.2 |  |  |  |  |
